The results in this text go back to EPA's ToxValDB 9.5 (doi:10.2903/j.efsa.2018.5307).

One data set deals with Pimephales promelas. The note with it: chronic/long-term; development.
In a further data set the test system is Cyprinus carpio. Particulars: acute; duration: 96 hours; mortality.
In another data set the test system is Apis mellifera. The note with it: acute, mortality.
In the next data set the test system is Daphnia magna. The note with it: chronic/long-term; duration: 23 days; reproduction.
In another data set the test system is Oryctolagus sp. Particulars: developmental; development.
Another data set deals with Tagia sp. Particulars: chronic/long-term; reproduction.
The subject of a further data set is Typhlodromus pyri. Briefly: LR50; higher = less toxic. Particulars: acute; mortality.

Broadly, the NOAEL is the highest tested level that showed no adverse finding. Broadly, the LC50 is the concentration lethal to half of the exposed cells or organisms. For the compound `CCOP(=O)=O.CCOP(=O)=O.CCOP(=O)=O.[Al+3]` [Fosetyl aluminum], the LD50 in the data set with Colinus virginianus (acute, oral, mortality) is over 2000 mg/kg-day; in the data set with Rattus norvegicus (acute, oral, mortality), over 7080 mg/kg-day; with Apis mellifera (dermal), over 100 µg/piece; with Apis mellifera (oral, unspecified), over 140 µg/piece. The compound further had an NOEL with Colinus virginianus (reproduction developmental) of 216 mg/kg-day. The NOEC in the data set with Pimephales promelas came to 0.213 mg/L; in the data set with Daphnia magna, 10.1 mg/L; in the data set with Tagia sp., 164 mg/kg. Moreover, the NOAEL in the data set with Rattus norvegicus (reproduction developmental, body weight) was 482 mg/kg-day; in the data set on Oryctolagus sp. it was 100 mg/kg-day. Moreover, the LC50 in the data set on Cyprinus carpio is over 100 µg/mL. For the same compound, the LR50 in the data set on Typhlodromus pyri was over 8400 g/ha.
